The values that follow come from US10526580B2, “Differentiated cell population of endothelial cells derived from human pluripotent stem cells, composition, system, kit and uses thereof” (BIOCANT-ASSOCIAÇÃO DE TRANSFERÊNCIA DE TECNOLOGIA, priority 2012, dated 2020).

The test system of data set [1] is hESC-derived ECs versus HUAECs. Nature of the data set: High-throughput screening of LOPAC library, PrestoBlue cell viability, hESC-derived ECs versus HUAECs. In kind it is cell-based, human. The conditions noted are these: LOPAC screen, 4.5 μM, 4 days, PrestoBlue assay. The method, then: High-throughput screening (HTS). HUAECS (Lonza) and hESC-derived ECs were cultured in EGM-2 medium while human anterior cruciate ligament cells (ACL cells) were cultured in Dulbecco's modified Eagle's medium (DMEM; PAA) supplemented with 10% FBS, 0.2 mM ascorbic acid 2-phosphate magnesium salt (Sigma Aldrich), […] streptomycin and 100 U/mL penicillin (Life Technologies). ACL cells were isolated from patients that have signed an informed consent form, in compliance with the Dutch legislation. The ethical committee of Medisch Spectrum Twente Hospital approved the collection.
The LOPAC library (Sigma-Aldrich) was used to screen embryonic endothelial-specific cytotoxic compounds. The compounds were solubilized in DMSO. The final compound concentration used in the screen was 4.5 μM in a final volume of 200 μL per well (96-well plate). HUAECs, hESC-derived EC and ACL cells were seeded at 16,000 cells/well (HUAECs and hESC-derived ECs) and 5,000 cells/well (ACL cells) and allowed to reach near confluence (approximately two days). After two days, medium was exchanged and test compounds and controls were added to the 96-well plates (all wells contained 0.25% (v/v) DMSO). After 4 days of incubation, cell viability was assessed using a PrestoBlue (Invitrogen) assay. This assay is based on a resazurin-based solution that indicates the reducing power of living cells and therefore measures indirectly their number. For each measurement, cell medium was removed and the PrestoBlue solution (10%) was added for 3 h at 37° C. upon which the absorbance was measured at 560-590 nm.
Disruption of vascular development has been directly correlated with prenatal loss, malformations and neurodevelopmental problems^41-44. […] The library was screened at a single dosage of 4.5 μM in a volume of 200 μL per well of EGM-2 medium, containing 0.25% DMSO (v/v). […] Six compounds (danazol, chlorpromazine hydrochloride, ellipticine, 3′,4′-dichlorobenzamil, fluphenazine dihydrochloride and 7-cyclopentyl-5-(4-phenoxy)phenyl-7H-pyrrolo[2,3-d]pyrimidin-4-ylamine) affected cell viability in both cells by a difference of 20% (FIG. 4B). The six compounds belong to different classes: cell cycle, ion pumps, dopamine pathway, phosphorylation and hormone signaling. The compounds selected from the primary screen were then tested against hESC-derived ECs and HUAECs at eight different concentrations to obtain a dose-response curve (FIG. 4C and FIG. 14).

The next data set has as its system HUAECs. Nature of the data set: 7-Cyclo in PDMS microfluidic system, static or flow (qRT-PCR, ELISA). The conditions noted are these: flow 20 dyne/cm2, 1 μM for 24 h. In kind it is cell-based, human. The method, then: For the 7-cyclo studies the flow experiments were carried out in a microfluidic system developed by us. The microfluidic device was obtained using a cylindrical mold of 20 Gauge. Polydimethylsiloxane (PDMS) (Sylgard 184 Silicone elastomere base) was mixed at a 10:1 ratio (w/w) with curing agent (Sylgard 184 Silicon Elastomer Curing Agent) and the solution was poured onto a mold (20 gauge needle laid on a plastic dish) and cured at 80° C. for about 3 h. The microchannel was cut to 0.5 cm length (900 μm inner diameter) and treated with Plasma Clean (Electronic Diener Femto Plasma Surface Technology version 5) for 2 min with argon gas (2 mBar) before immersing it in a solution of 0.1% gelatin. […]
Evaluation of the levels of vascular injury by specific markers. ELISA kits analyzed supernatants collected from the shear stress experiments for vWF and vWFpp (Gen-Probe GTI Diagnostic) and ADMA (Enzo Life Sciences), according to manufacturer's recommendations.
To evaluate the effects of 7-Cyclo in flow conditions, hESC-derived ECs were cultured in a poly(dimethylsiloxane) (PDMS) microfluidic system with cylindrical channels for 7 days at 20 dyne/cm2 (FIG. 5A). […] At day 7, cells were exposed to EGM-2 medium supplemented with 1 μM of 7-Cyclo for 24 h, and finally analyzed at morphological, genetic and secretion levels. […]
A general note: In qPCR the cycle at which signal appears reflects the starting amount.

Data set [2] relates to mouse aortic endothelial cells (mAEC). Nature of the data set: Gene expression in mouse aortic endothelial cells after 7-Cyclo. In kind it is cell-based. The procedure: To further validate the effects of 7-Cyclo at the embryonic vasculature, mouse embryonic ECs were incubated at day 12.5 (mAEC E12.5) and postnatal day 1 (p1) with 7-Cyclo (1 μM) for 24 h. […] In contrast, 7-Cyclo has no effect in p1 ECs. The degree of action of 7-Cyclo in mAEC E12.5 is similar to the one identified in hESC-derived ECs (FIG. 5C).
Total RNA from experimental groups was isolated using a protocol with TRIzol (Invitrogen) and RNeasy Minikit (Qiagen, Valencia). cDNA was prepared from 1 μg total RNA using Taqman Reverse transcription reagents (Applied Biosystems, CA). Quantitative PCR (qPCR) was performed using Power SYBR Green PCR Master Mix and the detection using an ABI PRISM 7500 Fast System (Applied Biosystems). Quantification of target genes was performed relative to the reference GAPDH gene: relative expression=2^[−(Ctsample^−CtGADPH^)]. The mean minimal cycle threshold values (Ct) were calculated from 4 reactions. In some cases, gene expression in each experimental group was normalized to the relative gene expression found in HUVECs, HUAECs or undifferentiated hESCs. Primer sequences are published in Table 7 of expanded materials and methods.

The next data set deals with Xenopus embryos. The conditions noted are these: 20 μM; cited from earlier work.
In data set [3] the test system is HUVECs and lymphatic EC tube formation. The settings on record: 1 μM, in vitro; cited from earlier work.

Take `Nc1ncnc2c1c(-c1ccc(Oc3ccccc3)cc1)cn2C1CCCC1` [7-Cyclo, 7-cyclopentyl-5-(4-phenoxy)phenyl-7H-pyrrolo[2,3-d]pyrimidin-4-ylamine]: the “difference in cell viability between hESC-derived ECs and HUAECs” value in data set [1] came to 20%. In the data set on HUAECs, the “down-regulation of DDAH-1 and DDAH-2” value is “No down-regulation”; the “expression of inflammatory genes” value was “only ICAM-1 and eNOS genes were up-regulated”. Further, the “inflammation, oxidative stress sensing, vascular modulation and vascular injury sensing genes” value in data set [2] (mAEC at E12.5, 1 μM for 24 h, versus cells without treatment) is recorded as “statistically up-regulated”. For the same compound, the “effect on gene expression” value in data set [2] (postnatal day 1 (p1) ECs, 1 μM for 24 h) is recorded as “no effect”. Moreover, in the data set on Xenopus embryos, the “effect on vasculature of Xenopus embryos” value was “interfere with angiogenic sprouting and disrupt blood vessel formation”. The tube formation entry in data set [3] is listed as “inhibits”.
